Results reported in US12161642B2, “Ferrochelatase inhibitors and methods of use” (INDIANA UNIVERSITY RESEARCH AND TECHNOLOGY CORPORATION, priority 2018, dated 2024).

Experiments:
[1] = tested on: HRECs; experiment: HREC proliferation assay (alamarBlue), GI50 determination; type: cell-based, human; conditions: proliferation of HRECs
Method: Human retinal microvascular endothelial cells (HRECs) were cultured in EGM-2 medium (Lonza). Cells (2500/well) in EGM-2 medium were plated in 48 wells in the center of a 96-well black with clear bottom TC treated plate are allowed to attach overnight. The cells were treated with compounds such that final assay concentrations were 100 μM, 30 μM, 10 μM, 3 μM, 1 μM, 100 nM, and 10 nM with DMSO control (1% final DMSO concentration). Cells were allowed to proliferate for 44 hours prior to addition of alamarBlue. The alamarBlue reagent is a flurorometric/colorimetric redox reagent that is reduced in the presence of growing cells. The assay was completed with a read of fluorescence at excitation of 560 nm and emission of 590 nm. GI50 values were determined using GraphPad Prism software.

[2] = target: recombinant human FECH (Homo sapiens (Human), UniProt P22830); experiment: FECH enzymatic activity assay (Ni2+ mesoporphyrin IX formation, absorbance at 550 nm); type: biochemical; conditions: recombinant FECH; read-out: FECH IC50
Method: The human FECH expression plasmid pHDTF20 was obtained in E. coli cells from the Dailey Lab (University of Georgia). The cells were grown in Circlegrow medium (MP Biomedicals, LLC #3000-122) with ampicillin for 20 hours. Cells were harvested, lysed in a Tris-MOPS buffer and purified by immobilized metal affinity chromatography using HisPur Cobalt resin (Thermo Fisher #89965).
The activity assay buffer was 100 mM Tris-HCl pH 8.0 with 0.05% octyl glucoside detergent. Assay reagents included 100 μM NiCl (Sigma #339350), 0.75 μM FECH enzyme and 100 μM mesoporphyrin (Sigma #258806) prepared in ammonium hydroxide (Santa Cruz #sc-214535).
The kinetic assay was optimized for a 384-well format. For the 384-well assay, each well contained a 50 μL reaction with 40 μL buffer, 5 μL mesoporphyrin solution, 5 μL NiCl and FECH solution. […] This time point was used for the chemical screen.
A mixture of assay buffer, NiCl and FECH enzyme (15 μL) was added to all wells on the assay plate using a MulitFlo dispenser. To start the reaction, 15 μL of a 333 μM mesoporphyrin solution in assay buffer was added to the plate, the plate spun down and the absorbance at OD=550 nm immediately read to establish a read at time 0. Plates were read for absorbance at OD=550 nm again at t=20 minutes and the activity was expressed as the change in the absorbance over the 20 minute reaction.
Compounds, reordered from ChemDiv or synthesized as described above, were made to 10 mM in DMSO and tested in the FECH enzymatic assay at final concentrations of […] 100 μM (1% final DMSO concentration). IC50 values for the compounds were determined using GraphPad Prism software.
A kinetic assay to monitor FECH enzymatic activity was adapted from a published protocol (Burden et a., Biochim Biophys Acta 1435, 191-197 (1999)).

Sequence of recombinant human FECH (P22830 55-423): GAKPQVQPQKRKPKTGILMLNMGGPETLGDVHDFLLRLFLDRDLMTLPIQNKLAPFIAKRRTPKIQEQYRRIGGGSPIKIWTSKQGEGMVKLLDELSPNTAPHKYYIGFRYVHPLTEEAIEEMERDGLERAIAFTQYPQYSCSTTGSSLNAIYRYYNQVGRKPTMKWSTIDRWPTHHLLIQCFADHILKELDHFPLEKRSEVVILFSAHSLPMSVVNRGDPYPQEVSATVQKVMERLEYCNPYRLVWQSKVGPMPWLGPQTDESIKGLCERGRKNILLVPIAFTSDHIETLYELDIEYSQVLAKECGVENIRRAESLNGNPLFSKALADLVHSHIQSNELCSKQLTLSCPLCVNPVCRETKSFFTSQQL

Structure (SMILES)	IC50 [2] [µM]	GI50 ([1]; Homo sapiens, HREC, 44 h) [µM]	GI50 ([1]; 44 hours) [µM]
CC(C)(C)c1ccc(-c2n[nH]c(N)n2)cc1 [Example 1, 3-(4-(tert-butyl)phenyl)-1H-1,2,4-triazol-5-amine]	> 100	> 100	–
Cc1cc(=O)n2nc(-c3ccc(C(C)(C)C)cc3)nc2[nH]1 [Example 2, 2-(4-(tert-butyl)phenyl)-5-methyl-[1,2,4]triazolo[1,5-a]pyrimidin-7(4H)-one]	> 100	> 100	–
CC(C)(C)c1ccc(-c2nc3[nH]c(CCl)cc(=O)n3n2)cc1 [Example 3, 2-(4-(tert-butyl)phenyl)-5-(chloromethyl)-[1,2,4]triazolo[1,5-a]pyrimidin-7(4H)-one]	> 100	> 100	–
CN(Cc1ccccc1)Cc1cc(=O)n2nc(-c3ccc(C(C)(C)C)cc3)nc2[nH]1 [Example 4a, 5-((benzyl(methyl)amino)methyl)-2-(4-(tert-butyl)phenyl)-[1,2,4]triazolo[1,5-a]pyrimidin-7(4H)-one]	> 100	> 100	–
CCN(CC)Cc1cc(=O)n2nc(-c3ccc(C(C)(C)C)cc3)nc2[nH]1 [Example 4g, 2-(4-(tert-butyl)phenyl)-5-((diethylamino)methyl)-[1,2,4]triazolo[1,5-a]pyrimidin-7(4H)-one]	> 100	> 100	–
CCCc1cc(=O)n2nc(CNc3cccc(Cl)c3)nc2[nH]1 [Example 5e, 2-(((3-chlorophenyl)amino)methyl)-5-propyl-[1,2,4]triazolo[1,5-a]pyrimidin-7(4H)-one]	0.346	> 100	–
CCCc1cc(=O)n2nc(CNc3ccccc3-c3ccccc3)nc2[nH]1 [Example 5g, 2-(([1,1′-biphenyl]-2-ylamino)methyl)-5-propyl-[1,2,4]triazolo[1,5-a]pyrimidin-7(4H)-one]	27.3	> 100	–
CCCc1cc(=O)n2nc(CNc3ccc(F)c(Cl)c3)nc2[nH]1 [Example 5i, 2-(((3-chloro-4-fluorophenyl)amino)methyl)-5-propyl-[1,2,4]triazolo[1,5-a]pyrimidin-7(4H)-one]	0.0336	> 100	–
Cc1cccc(NCc2nc3[nH]c4c(c(=O)n3n2)CCC4)c1 [Example 5p, 2-((m-tolylamino)methyl)-4,5,6,7-tetrahydro-8H-cyclopenta[d][1,2,4]triazolo[1,5-a]pyrimidin-8-one]	9.34	> 100	–
Cc1cccc(NCc2nc3[nH]c(C(C)C)cc(=O)n3n2)c1 [Example 5s, 5-isopropyl-2-((m-tolylamino)methyl)-[1,2,4]triazolo[1,5-a]pyrimidin-7(4H)-one]	28.1	> 100	–
Cc1ccc(NCc2nc3[nH]c(C(C)C)cc(=O)n3n2)cc1 [Example 5t, 5-isopropyl-2-((p-tolylamino)methyl)-[1,2,4]triazolo[1,5-a]pyrimidin-7(4H)-one]	16.8	> 100	–
Cc1cc(=O)n2nc(CNc3ccccc3C)nc2[nH]1 [Example 5u, 5-methyl-2-((o-tolylamino)methyl)-[1,2,4]triazolo[1,5-a]pyrimidin-7(4H)-one]	77.2	> 100	–
COc1cccc(NCc2cc(=O)n3nc(-c4ccc(C(C)(C)C)cc4)nc3[nH]2)c1 [Example D351-0319]	–	> 100	–

The next lines start with results.

IC50 [2] [µM]	Structure (SMILES)	GI50 ([1]; Homo sapiens, HREC, 44 h) [µM]	GI50 ([1]; 44 hours) [µM]
> 100	CC(C)(C)c1ccc(-c2nc3[nH]c(CNc4ccnn4-c4ccccc4)cc(=O)n3n2)cc1 [Example 4b, 2-(4-(tert-butyl)phenyl)-5-(((1-phenyl-1H-pyrazol-5-yl)amino)methyl)-[1,2,4]triazolo[1,5-a]pyrimidin-7(4H)-one]	> 100	–
> 100	CC(C)(C)c1ccc(-c2nc3[nH]c(CNCCc4ccccc4)cc(=O)n3n2)cc1 [Example 4c, 2-(4-(tert-butyl)phenyl)-5-((phenethylamino)methyl)-[1,2,4]triazolo[1,5-a]pyrimidin-7(4H)-one]	> 100	–
> 100	CC(C)(C)c1ccc(-c2nc3[nH]c(CNc4cnccn4)cc(=O)n3n2)cc1 [Example 4d, 2-(4-(tert-butyl)phenyl)-5-((pyrazin-2-ylamino)methyl)-[1,2,4]triazolo[1,5-a]pyrimidin-7(4H)-one]	> 100	–
> 100	CC(C)(C)c1ccc(-c2nc3[nH]c(CNC4CCCC4)cc(=O)n3n2)cc1 [Example 4f, 2-(4-(tert-butyl)phenyl)-5-((cyclopentylamino)methyl)-[1,2,4]triazolo[1,5-a]pyrimidin-7(4H)-one]	> 100	–
0.508	CCCc1cc(=O)n2nc(CNc3cccc(C)c3)nc2[nH]1 [Example 5b, 5-propyl-2-((m-tolylamino)methyl)-[1,2,4]triazolo[1,5-a]pyrimidin-7(4H)-one]	> 100	–
0.0916	CCCc1cc(=O)n2nc(CNc3ccc(Cl)cc3)nc2[nH]1 [Example 5f, 2-(((4-chlorophenyl)amino)methyl)-5-propyl-[1,2,4]triazolo[1,5-a]pyrimidin-7(4H)-one]	–	> 100
10.6	CCCc1cc(=O)n2nc(CNc3ccc(CC)cc3)nc2[nH]1 [Example 5j, 2-(((4-ethylphenyl)amino)methyl)-5-propyl-[1,2,4]triazolo[1,5-a]pyrimidin-7(4H)-one]	> 100	–
0.0429	CCCc1cc(=O)n2nc(CNc3ccc(F)c(F)c3)nc2[nH]1 [Example 5k, 2-(((3,4-difluorophenyl)amino)methyl)-5-propyl-[1,2,4]triazolo[1,5-a]pyrimidin-7(4H)-one]	> 100	–
78	CCCCCOc1ccc(NCc2nc3[nH]c(CCC)cc(=O)n3n2)cc1 [Example 5l, 2-(((4-(pentyloxy)phenyl)amino)methyl)-5-propyl-[1,2,4]triazolo[1,5-a]pyrimidin-7(4H)-one]	> 100	–
0.525	CCCc1cc(=O)n2nc(CNc3ccc(F)cc3)nc2[nH]1 [Example 5m, 2-(((4-fluorophenyl)amino)methyl)-5-propyl-[1,2,4]triazolo[1,5-a]pyrimidin-7(4H)-one]	> 100	–
34.1	CCCc1cc(=O)n2nc(CNc3ccc(OC(F)(F)F)cc3)nc2[nH]1 [Example 5n, 5-propyl-2-(((4-(trifluoromethoxy)phenyl)amino)methyl)-[1,2,4]triazolo[1,5-a]pyrimidin-7(4H)-one]	> 100	–
> 100	Cc1ccccc1NCc1nc2[nH]c3c(c(=O)n2n1)CCC3 [Example 5o, 2-((o-tolylamino)methyl)-4,5,6,7-tetrahydro-8H-cyclopenta[d][1,2,4]triazolo[1,5-a]pyrimidin-8-one]	> 100	–
3.62	Cc1ccc(NCc2nc3[nH]c4c(c(=O)n3n2)CCC4)cc1 [Example 5q, 2-((p-tolylamino)methyl)-4,5,6,7-tetrahydro-8H-cyclopenta[d][1,2,4]triazolo[,5-a]pyrimidin-8-one]	> 100	–
17.9	Cc1ccccc1NCc1nc2[nH]c(C(C)C)cc(=O)n2n1 [Example 5r, 5-isopropyl-2-((o-tolylamino)methyl)-[1,2,4]triazolo[1,5-a]pyrimidin-7(4H)-one]	> 100	–
18.7	Cc1cccc(NCc2nc3[nH]c(C)cc(=O)n3n2)c1 [Example 5v, 5-methyl-2-((m-tolylamino)methyl)-[1,2,4]triazolo[1,5-a]pyrimidin-7(4H)-one]	> 100	–
0.751	Cc1c(Cl)cccc1NCc1nc2[nH]c(C(C)C)cc(=O)n2n1 [Example D433-1800]	–	–
